Reference: patent US20210260010A1, “COMPOSITIONS AND METHODS FOR THE REDUCTION OR TREATMENT OF INFLAMMATION” (AXCELLA HEALTH INC., priority 2018, published 2021)

Assay: FATZO mouse NASH model on western diet plus fructose (Example 8): body and liver weight, liver histology, NAS, fibrosis
Assay type: in vivo, FATZO mice
Text: NASH was induced in 60 male FATZO mice by a western diet (Research Diet #D12079B; fat 40% kcal, protein 17% kcal, carbohydrate 43% kcal) supplemented with 5% fructose in the drinking water (WDF) during a 16 week induction phase. Diets and water were available ad libitum. Littermate control male FATZO mice fed with a control diet (n=6, Purina #5008; fat 17% kcal, protein 27% kcal, carbohydrate 56% kcal) and sterile water were set up for control purpose. Mice were housed in plastic cages with microisolator. Sterilized bedding was replaced once a week. Mice were housed three per cage and maintained on a twelve hour light cycle throughout study duration. Room temperature was monitored daily and maintained at 22-25° C. Body weight was recorded every week during the induction phase.
Following 16 weeks diet induction, 6 mice remained on control diet (group 1, Control) while 60 induced mice were randomized on body weight and plasma glucose (fed) for assignment to the following treatments. FATZO mice were administered with test articles starting at 16 weeks post western diet NASH induction for 4 weeks. Test articles were administered by oral gavage. Animals were euthanized at 20 weeks post western diet NASH induction, and tissues were harvested for analysis.
[…], […]+G, LRQNAC, and OCA (Advanced ChemBlocks, Inc.), incipient, and water for irrigation were provided by Axcella Health, Inc. 0.5% Methylcellulosewas provided by CrownBio, Inc. Dosing solutions were prepared according to Appendix 1. […] Obeticholic acid (OCA) was suspended in 0.5% methylcellulose in water for irrigation. All test articles were stored refrigerated. TA compounds were provided in frozen powder form by the sponsor. Dosing was continued for 4 weeks.
[…], […]+G, LRQNAC, OCA and Vehicle were administered by oral gavage at a volume of 10 mL/kg throughout the study. Dosages were calculated by daily body weight. […], […]+G, LRQNAC, and Vehicle were administered twice per day (BID), while OCA was administered once a day (QD) in the morning. Mice receiving OCA once per day (QD), and one vehicle QD. Doses were administered by oral gavage at 0700 and 1800 by oral gavage for 4 weeks.
The viability, clinical signs and behavior were monitored daily. Body weight was recorded daily during the dosing period. Blood samples were collected weekly in the AM (0700) via tail clip for glucose measurement (StatStrip glucometer).
Animals were anesthetized with CO2 inhalation and exsanguinated via cardiac puncture for euthanasia. Terminal blood samples (K2EDTA) were obtained by cardiac puncture in anesthetized animals at termination. Samples were provided frozen to Axcella Health. Organ weights (total liver, gonadal fat pads) were recorded. Pancreas, and small intestine and gonadal fat pads were fixed in 10% Buffered Formalin and prepared as directed in protocol. A section of small intestine, gonadal fat pad and liver were also snap frozen in liquid nitrogen and shipped to the sponsor.
The liver tissues were fixed in Bouin's solution at 4° C. for 24 hours followed by baths of standard concentrations of alcohol then xylene to prepare the tissues for paraffin embedding. After being embedded in paraffin and cooled, five-micron sections were cut and stained for routine H&E and Picric Sirius Red. A section of both right and left lobes of the livers were frozen in OCT for analysis of lipid content with Oil-Red-) staining. The Aperio whole slide digital imaging system (Scan Scope CS, Vista, Calif.) was used for imaging. All slides were imaged at 20×. The scan time ranged from 1.5 minutes to a maximum time of 2.25 minutes. The whole images were housed and stored in their Spectrum software system and images were shot from the whole slides.
The livers were evaluated using the NASH liver criteria for scoring. In this mouse study, one cross section of liver for each case was analyzed with the NASH score system. […]

[1] = FATZO mice on WDF, 4 weeks, LIVRQNAC+G 3885 mg/kg, LRQNAC 2469 mg/kg BID, OCA 30 mg/kg/day QD
[2] = score 0-3, WDF fed FATZO mice, oral gavage 4 weeks, LIVRQNAC+G and LRQNAC leucine-matched BID, OCA QD

**Q.** With `CC[C@H]1[C@@H](O)[C@@H]2[C@H](CC[C@]3(C)[C@@H]([C@H](C)CCC(=O)O)CC[C@@H]23)[C@@]2(C)CC[C@@H](O)C[C@@H]12` [OCA, 6α-ethyl-chenodeoxycholic acid] as the compound, how does the “NAFLD activity score (NAS)” value (FATZO mice on WDF, 4 weeks, vs vehicle, LIVRQNAC 1500 or 3000 mg/kg, LIVRQNAC+G 3885 mg/kg, LRQNAC 2469 mg/kg, OCA 30 mg/kg/day) read?
**A.** no significant effect

**Q.** And the “Body weight change compared to baseline” value [1]?
**A.** −3.9±1.5%

**Q.** And the “Liver weight (% body weight)” value [1]?
**A.** 6.81±0.2 % body weight

**Q.** What about the “Liver Pathology NAS” value (WDF fed FATZO mice, oral gavage 4 weeks, LIVRQNAC+G and LRQNAC leucine-matched BID, OCA QD) of the same compound?
**A.** 3.72 ± 0.147

**Q.** And the “Liver Pathology Ballooning” value (score 0-2, WDF fed FATZO mice, oral gavage 4 weeks, LIVRQNAC+G and LRQNAC leucine-matched BID, OCA QD)?
**A.** 0.94 ± 0.056

**Q.** What about the “Liver Pathology Inflammation” value [2] of the same compound?
**A.** 1.0 ± 0.0

**Q.** And the “Liver Pathology Steatosis” value [2]?
**A.** 1.78 ± 0.147
